# Tests used:
# [1] = Dissolution state in isopropyl myristate (IPM); format: physicochemical; conditions: concentration of 3.84 mmol/L
# Procedure: (§1) The compounds described in the Examples were dissolved or suspended in isopropyl myristate (IPM) at a concentration of 3.84 mmol/L and the resultant was used.
# [2] = Hairless mouse skin permeation test; format: in vitro ADME; design: unit not given here; conditions: hairless mouse (HR-1) skin, horizontal diffusion cell, 37° C., donor 3.84 mmol/L in IPM, N=3
# Procedure: as §1
# The frozen skin of a hairless mouse (HR-1 strain, male, 7 weeks old, Japan SLC, Inc.) was thawed at room temperature and, if there was excess subcutaneous fat, the fat was excised with scissors. The horizontal diffusion cell was kept at a constant temperature by flowing water from a thermostatic circulation tank (37° C.) into the external jacket of the cell. The hairless mouse skin was punched out to ϕ24 mm and mounted tightly in the horizontal diffusion cell, 0.9 mL of a receiver solution (McIlvaine buffer containing 40% polyethylene glycol 400) was added to the dermal side (receiver side), and 0.9 mL of a donor solution (the solution or suspension of the compound described in the Example in IPM at a concentration of 3.84 mmol/L) was added to the stratum corneum side (donor side). […]
# The compounds in liquids collected in the skin permeation test were quantified. […]
# Skin permeation rate (flux, mmol/cm2/hr) and Lag time (hr) were calculated from the slope and X-axis intercept, respectively, of the regression line at steady state from the profile, and used as indicators of skin permeation.
# mice (C57BL/6JJmsSlc) = test: Analgesic score by Tail Flick test in mice; format: in vivo; conditions: Mus musculus, sc, subcutaneous administration in Captisol, dose with an analgesic score of 50%
# Procedure: A Tail Flick analgesic effect metering device (Ugo Basile) and adult mice (C57BL/6JJmsSlc, Japan SLC, Inc.) were used for evaluation. In the Tail Flick test, thermal stimulation was applied to the tail of each animal, and the latency (in seconds) of escape reflection moving the tail was measured. The maximum heat application time was set to 10 seconds in order to prevent burns.
# The compounds described in the Examples were dissolved or suspended in Captisol to prepare test samples. Then, test samples at appropriately selected concentrations were administered subcutaneously to the animals (10 mL/kg), and the latency of escape reflection was measured. The latency of escape reflection before test sample administration was set as [pre-dose measurement], and the analgesic score (%) was calculated as [([measurement]−[pre-dose measurement])/(10−[pre-dose measurement])]×100.
# The ED50 was determined by calculating a dose with an analgesic score of 50%.
SMILES,Dissolution state in IPM [1],Flux (skin permeation rate) [2],ED50 (mice (C57BL/6JJmsSlc)) [mg/kg]
"CN(C)C[C@@H]1COCC[C@H]1c1cccc(O)c1 (relative stereo) [Example 1, 3-[(3R*,4R*)-3-(Dimethylaminomethyl)tetrahydropyran-4-yl]phenol]",Dissolved,,
"CN(C)C[C@@H]1COCC[C@H]1c1cccc(O)c1 (racemic) [Example 1, 3-[(3R*,4R*)-3-(Dimethylaminomethyl)tetrahydropyran-4-yl]phenol]",,35.77,1.6
CN(C)C[C@@H]1CCCC[C@H]1c1cccc(O)c1 [Faxeladol],Suspended,17.14,2.7

# — patent publication US11440896B2, “Aminoalkyl compound” (Daiichi Sankyo Company, Limited, priority 2018, dated 2022)
